The values below are quoted from earlier work in patent US20100210792A1, “DRUG DELIVERY” (priority 2006, published 2010).

For the series the following is noted: Table 1 drug list.
Turning to `CC(C)c1c(C(=O)Nc2ccccc2)c(-c2ccccc2)c(-c2ccc(F)cc2)n1CC[C@@H](O)C[C@@H](O)CC(=O)O` [Atorvastatin], the Hydrophobic entry is “YES”.
Take `CC[C@H]1OC(=O)[C@H](C)[C@@H](O[C@H]2C[C@@](C)(OC)[C@@H](O)[C@H](C)O2)[C@H](C)[C@@H](O[C@@H]2O[C@H](C)C[C@H](N(C)C)[C@H]2O)[C@](C)(OC)C[C@@H](C)C(=O)[C@H](C)[C@@H](O)[C@]1(C)O` [Clarithromycin]: the Hydrophobic result is listed as “YES”.
Turning to `COc1ccc2nc([S@@+]([O-])Cc3ncc(C)c(OC)c3C)[nH]c2c1` [Esomeprazole], the Hydrophobic result was “YES”.
For `Cc1c(OCC(F)(F)F)ccnc1C[S+]([O-])c1nc2ccccc2[nH]1` (centres unmarked) [Lansoprazole], the Hydrophobic result is “YES”.
In the case of `OCCOCCN1CCN(C2=Nc3ccccc3Sc3ccccc32)CC1` [Quetiapine], the Hydrophobic entry is “YES”.
Take `Cc1nc2n(c(=O)c1CCN1CCC(c3noc4cc(F)ccc34)CC1)CCCC2` [Risperidone, 4-[2-[4-(6-fluorobenzo[d]isoxazol-3-yl)-1-piperidyl]ethyl]-3-methyl-2,6-diazabicyclo[4.4.0]deca-1,3-dien-5-one]: the Hydrophobic entry is given as “YES”.
As to `CC(C)c1nc(N(C)S(C)(=O)=O)nc(-c2ccc(F)cc2)c1/C=C/[C@@H](O)C[C@@H](O)CC(=O)O` [Rosuvastatin], the Hydrophobic entry is on record as “YES”.
In the case of `CN[C@H]1CC[C@@H](c2ccc(Cl)c(Cl)c2)c2ccccc21` [Sertradine], the Hydrophobic entry is listed as “YES”.
